Test results reported in PubChem BioAssay (NCI).
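Values below derive from 48-hour exposures of cells grown in 96-well plates, with endpoints linearly interpolated between the two concentrations bracketing the appropriate inhibition level. TGI marks complete inhibition of growth.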

Experiments:
Assay in all cases: NCI tumour cell line growth inhibition, 48 h
786-0 renal = system: 786-0 renal
A498 renal = system: A498 renal
A549 NSCLC = system: A549 NSCLC
ACHN renal = system: ACHN renal
BT-549 breast = system: BT-549 breast
CCRF-CEM leukemia = system: CCRF-CEM leukemia
COLO 205 colon = system: COLO 205 colon
DU-145 prostate = system: DU-145 prostate
EKVX NSCLC = system: EKVX NSCLC
HCC-2998 colon = system: HCC-2998 colon
HCT-116 colon = system: HCT-116 colon
HCT-15 colon = system: HCT-15 colon
HL-60(TB) leukemia = system: HL-60(TB) leukemia
HOP-62 NSCLC = system: HOP-62 NSCLC
HOP-92 NSCLC = system: HOP-92 NSCLC
HS 578T breast = system: HS 578T breast
HT29 colon = system: HT29 colon
IGROV1 ovarian = system: IGROV1 ovarian
K-562 leukemia = system: K-562 leukemia
KM12 colon = system: KM12 colon
LOX IMVI melanoma = system: LOX IMVI melanoma
M14 melanoma = system: M14 melanoma
MALME-3M melanoma = system: MALME-3M melanoma
MCF7 breast = system: MCF7 breast
MDA-MB-231 breast = system: MDA-MB-231 breast
MDA-MB-435 = system: MDA-MB-435
MDA-N = system: MDA-N
MOLT-4 leukemia = system: MOLT-4 leukemia
NCI-H226 lung = system: NCI-H226 lung
NCI-H23 lung = system: NCI-H23 lung
NCI-H460 lung = system: NCI-H460 lung
NCI-H522 lung = system: NCI-H522 lung
NCI/ADR-RES ovarian = system: NCI/ADR-RES ovarian
OVCAR-3 ovarian = system: OVCAR-3 ovarian
OVCAR-4 ovarian = system: OVCAR-4 ovarian
OVCAR-5 ovarian = system: OVCAR-5 ovarian
OVCAR-8 ovarian = system: OVCAR-8 ovarian
PC-3 prostate = system: PC-3 prostate
RPMI-8226 leukemia = system: RPMI-8226 leukemia
RXF 393 renal = system: RXF 393 renal
SF-268 CNS = system: SF-268 CNS
SF-295 CNS = system: SF-295 CNS
SF-539 CNS = system: SF-539 CNS
SK-MEL-2 melanoma = system: SK-MEL-2 melanoma
SK-MEL-28 melanoma = system: SK-MEL-28 melanoma
SK-MEL-5 melanoma = system: SK-MEL-5 melanoma
SK-OV-3 ovarian = system: SK-OV-3 ovarian
SN12C renal = system: SN12C renal
SNB-19 CNS = system: SNB-19 CNS
SNB-75 CNS = system: SNB-75 CNS
SR leukemia = system: SR leukemia
SW-620 colon = system: SW-620 colon
T-47D breast = system: T-47D breast
TK-10 renal = system: TK-10 renal
U251 CNS = system: U251 CNS
UACC-257 melanoma = system: UACC-257 melanoma
UACC-62 melanoma = system: UACC-62 melanoma
UO-31 renal = system: UO-31 renal
CAKI-1 renal = system: CAKI-1 renal
DLD-1 colon = system: DLD-1 colon
DMS 273 small cell lung = system: DMS 273 small cell lung
HOP-18 NSCLC = system: HOP-18 NSCLC
KM20L2 colon = system: KM20L2 colon
M19-MEL melanoma = system: M19-MEL melanoma
RXF-631 renal = system: RXF-631 renal
SNB-78 CNS = system: SNB-78 CNS

Measured: TGI

N#CC12CC=C(c3ccccc3)N=C1NC(c1ccccc1)=CC2 (centres undefined)
50.5 µM: HL-60(TB) leukemia
77.7 µM: CCRF-CEM leukemia
55.1 µM: MOLT-4 leukemia
92.2 µM: HOP-92 NSCLC
> 100 µM: 786-0 renal | A549 NSCLC | ACHN renal | BT-549 breast | COLO 205 colon | DU-145 prostate | EKVX NSCLC | HCC-2998 colon | HCT-116 colon | HCT-15 colon | HOP-62 NSCLC | HS 578T breast | HT29 colon | IGROV1 ovarian | K-562 leukemia | KM12 colon | LOX IMVI melanoma | M14 melanoma | MALME-3M melanoma | MCF7 breast | MDA-MB-231 breast | MDA-MB-435 | MDA-N | NCI-H226 lung | NCI-H23 lung | NCI-H460 lung | NCI-H522 lung | NCI/ADR-RES ovarian | OVCAR-3 ovarian | OVCAR-4 ovarian | OVCAR-5 ovarian | OVCAR-8 ovarian | PC-3 prostate | RXF 393 renal | SF-268 CNS | SF-295 CNS | SF-539 CNS | SK-MEL-2 melanoma | SK-MEL-28 melanoma | SK-OV-3 ovarian | SN12C renal | SNB-19 CNS | SNB-75 CNS | SW-620 colon | T-47D breast | TK-10 renal | U251 CNS | UACC-257 melanoma | UACC-62 melanoma | UO-31 renal
97 µM: A498 renal
73.8 µM: RPMI-8226 leukemia
82.2 µM: SR leukemia
39.4 µM: SK-MEL-5 melanoma

O=c1c2cc(Br)ccc2[nH]c(=S)n1-c1ccccc1
> 100 µM: 786-0 renal | A498 renal | A549 NSCLC | ACHN renal | CAKI-1 renal | CCRF-CEM leukemia | COLO 205 colon | DLD-1 colon | DMS 273 small cell lung | EKVX NSCLC | HCC-2998 colon | HCT-116 colon | HCT-15 colon | HOP-18 NSCLC | HOP-62 NSCLC | HOP-92 NSCLC | HT29 colon | IGROV1 ovarian | K-562 leukemia | KM12 colon | KM20L2 colon | LOX IMVI melanoma | M14 melanoma | M19-MEL melanoma | MALME-3M melanoma | NCI-H226 lung | NCI-H23 lung | NCI-H460 lung | OVCAR-3 ovarian | OVCAR-4 ovarian | OVCAR-5 ovarian | OVCAR-8 ovarian | RPMI-8226 leukemia | RXF-631 renal | SF-268 CNS | SF-295 CNS | SF-539 CNS | SK-MEL-2 melanoma | SK-MEL-28 melanoma | SK-MEL-5 melanoma | SK-OV-3 ovarian | SN12C renal | SNB-19 CNS | SNB-75 CNS | SNB-78 CNS | SW-620 colon | TK-10 renal | U251 CNS | UACC-257 melanoma | UACC-62 melanoma | UO-31 renal
